Measurements as given in patent US20260272896A1, “ORAL D[…] OF MITRAGYNINE” (LUCKY 4U EXIMS, priority 2023, published 2026).

Assay: Long term storage stability of purified Mitragynine
Format: physicochemical
Conditions: stored at 2° C.-8° C.

Compound: CC[C@@H]1CN2CCc3c([nH]c4cccc(OC)c34)[C@@H]2C[C@@H]1/C(=C\OC)C(=O)OC [Mitragynine]
- Storage stability: stable for long term storage
